Like-named read-outs stand apart in the source and are kept apart here. Square brackets hold non-standard residues; d marks the D form. Peptide text beside a SMILES is read from it. Cit = NC(=O)NCCC[C@H](N)C(=O)O
Key:
HLA-DRB1*04:01 = target: T1, HLA-DRB1*04:01 (Homo sapiens, UniProt P01903+P01911, A100K/A169T/F76Y/I96L/K127E/L162R/M171V/N62H/P40V/Q125Y/R42H/S133A/S149N/S66Y/V115G/V209L/W38E); experiment: HLA class II peptide binding, inhibition of radiolabeled peptide binding to purified MHC
T1 construct: EBV transformed homozygous cell lines were used as sources of MHC molecules; endogenous in cells; host or cells: EBV transformed homozygous cell lines

HLA-DRB1*01:01 = target: T2, HLA-DRB1*01:01 (Homo sapiens, UniProt P01903+P01911, A100R/D57E/F55L/F60I/F76Y/I96L/L162R/M171V/P40L/Q125E/R42F/V115G/Y59C); experiment: as above
T2 construct: EBV transformed homozygous cell lines were used as sources of MHC molecules; endogenous in cells; host or cells: EBV transformed homozygous cell lines

[1] = citrullinated 15-mer peptide (X = citrulline), purified HLA-DRB1*04:01, read-out: DRB1*04:01 binding capacity, Cit peptide (IC50 nM)
[2] = citrullinated 15-mer peptide (X = citrulline), purified HLA-DRB1*01:01, read-out: DRB1*01:01 binding capacity, Cit peptide (IC50 nM)
[3] = citrullinated peptide as listed (X at Cit position), read-out: DRB1*04:01 binding capacity Cit peptide (IC50 nM)
[4] = value of the wild-type (non-citrullinated) counterpart of the listed peptide, read-out: DRB1*04:01 binding capacity WT peptide (IC50 nM)
[5] = citrullinated peptide as listed (X at Cit position), read-out: DRB1*01:01 binding capacity Cit peptide (IC50 nM)
[6] = value of the wild-type (non-citrullinated) counterpart of the listed peptide, read-out: DRB1*01:01 binding capacity WT peptide (IC50 nM)

Structure (SMILES) | IC50 (HLA-DRB1*04:01; [1]) | IC50 (HLA-DRB1*01:01; [2]) | IC50 (HLA-DRB1*04:01; [3]) | IC50 (HLA-DRB1*04:01; [4]) | IC50 (HLA-DRB1*01:01; [5]) | IC50 (HLA-DRB1*01:01; [6])
CC[C@H](C)[C@H](NC(=O)CN)C(=O)N[C@H](C(=O)NCC(=O)N[C@@H](CC(C)C)C(=O)N1CCC[C@H]1C(=O)NCC(=O)N[C@@H](CCC(N)=O)C(=O)N[C@@H](CCCNC(=N)N)C(=O)NCC(=O)N[C@@H](CCC(=O)O)C(=O)N[C@@H](CCCNC(N)=O)C(=O)NCC(=O)N[C@@H](Cc1ccccc1)C(=O)N1CCC[C@H]1C(=O)O)C(C)C [GIVGLPGQRGEXGFP] (H-GIVGLPGQRGE[Cit]GFP-OH) | 5800 nM | 6.7 nM | – | – | – | –
CC[C@H](C)[C@H](NC(=O)CN)C(=O)N[C@H](C(=O)NCC(=O)N[C@@H](CC(C)C)C(=O)N1CCC[C@H]1C(=O)NCC(=O)N[C@@H](CCC(N)=O)C(=O)N[C@@H](CCCNC(N)=O)C(=O)NCC(=O)N[C@@H](CCC(=O)O)C(=O)N[C@@H](CCCNC(=N)N)C(=O)NCC(=O)N[C@@H](Cc1ccccc1)C(=O)N1CCC[C@H]1C(=O)O)C(C)C [GIVGLPGQXGERGFP] (H-GIVGLPGQ[Cit]GERGFP-OH) | 2050 nM | 3.6 nM | – | – | – | –
CC[C@H](C)[C@H](NC(=O)[C@@H](NC(=O)[C@@H](NC(=O)[C@H](CCCCN)NC(=O)CN)[C@@H](C)O)C(C)C)C(=O)N[C@@H](CCC(=O)O)C(=O)N[C@@H](Cc1ccc(O)cc1)C(=O)N[C@@H](CCCNC(=N)N)C(=O)N[C@@H](CO)C(=O)N[C@@H](CCC(N)=O)C(=O)N[C@@H](CCCCN)C(=O)N[C@H](C(=O)N[C@@H](CO)C(=O)N[C@@H](CCCNC(N)=O)C(=O)N[C@@H](CC(C)C)C(=O)O)[C@@H](C)O [GKTVIEYRSQKTSXL] (H-GKTVIEYRSQKTS[Cit]L-OH) | – | – | 138 nM | 646 nM | 9.3 nM | 29 nM
CC[C@H](C)[C@H](NC(=O)[C@@H](NC(=O)[C@@H](NC(=O)[C@H](CCCCN)NC(=O)CN)[C@@H](C)O)C(C)C)C(=O)N[C@@H](CCC(=O)O)C(=O)N[C@@H](Cc1ccc(O)cc1)C(=O)N[C@@H](CCCNC(N)=O)C(=O)N[C@@H](CO)C(=O)N[C@@H](CCC(N)=O)C(=O)N[C@@H](CCCCN)C(=O)N[C@H](C(=O)N[C@@H](CO)C(=O)N[C@@H](CCCNC(=N)N)C(=O)N[C@@H](CC(C)C)C(=O)O)[C@@H](C)O [GKTVIEYXSQKTSRL] (H-GKTVIEY[Cit]SQKTSRL-OH) | – | – | 153 nM | 646 nM | 7.1 nM | 29 nM
CC(C)C[C@H](NC(=O)CNC(=O)[C@@H]1CCCN1C(=O)[C@H](C)NC(=O)CNC(=O)[C@@H]1CCCN1C(=O)[C@H](CC(C)C)NC(=O)CN)C(=O)N[C@@H](CCCNC(N)=O)C(=O)NCC(=O)N[C@@H](CC(C)C)C(=O)N1CCC[C@H]1C(=O)NCC(=O)N[C@@H](CCCCN)C(=O)N[C@@H](CC(=O)O)C(=O)O [GLPGAPGLXGLPGKD] (H-GLPGAPGL[Cit]GLPGKD-OH) | > 40000 nM | 514 nM | – | – | – | –
CSCC[C@H](NC(=O)[C@@H](NC(=O)CNC(=O)[C@@H]1CCCN1C(=O)[C@H](CCC(N)=O)NC(=O)CNC(=O)[C@H](CCCNC(N)=O)NC(=O)[C@H](C)NC(=O)CNC(=O)[C@H](CCC(N)=O)NC(=O)[C@@H]1CCCN1C(=O)CN)C(C)C)C(=O)NCC(=O)N[C@@H](Cc1ccccc1)C(=O)N1CCC[C@H]1C(=O)O [GPQGAXGQPGVMGFP] (H-GPQGA[Cit]GQPGVMGFP-OH) | 14900 nM | 64 nM | – | – | – | –
N=C(N)NCCC[C@H](NC(=O)[C@H](CCC(=O)O)NC(=O)CNC(=O)[C@H](CCCNC(=N)N)NC(=O)[C@@H]1CCCN1C(=O)CN)C(=O)NCC(=O)N[C@@H](Cc1ccccc1)C(=O)N1CCC[C@H]1C(=O)NCC(=O)N[C@@H](CCC(=O)O)C(=O)N[C@@H](CCCNC(N)=O)C(=O)NCC(=O)N[C@@H](CO)C(=O)N1CCC[C@H]1C(=O)O [GPRGERGFPGEXGSP] (H-GPRGERGFPGE[Cit]GSP-OH) | > 40000 nM | 31100 nM | – | – | – | –
N=C(N)NCCC[C@H](NC(=O)[C@H](CCC(=O)O)NC(=O)CNC(=O)[C@@H]1CCCN1C(=O)[C@H](Cc1ccccc1)NC(=O)CNC(=O)[C@H](CCCNC(N)=O)NC(=O)[C@H](CCC(=O)O)NC(=O)CNC(=O)[C@H](CCCNC(=N)N)NC(=O)[C@@H]1CCCN1C(=O)CN)C(=O)NCC(=O)N[C@@H](CO)C(=O)N1CCC[C@H]1C(=O)O [GPRGEXGFPGERGSP] (H-GPRGE[Cit]GFPGERGSP-OH) | > 40000 nM | 18000 nM | – | – | – | –

— article PMC5421785, “Citrullination only infrequently impacts peptide binding to HLA class II MHC” (PLoS ONE, 2017)
